Measurements published in patent US20070270418A1, “Inhibitors of P38 and Methods of Using the Same” (priority 2003, published 2007).

target: T1, p38α (Homo sapiens, UniProt Q16539); experiment: p38 MAP Kinase assay, ATF2 phosphorylation (ELISA); format: biochemical; conditions: 40 μM ATP
T1 construct: p38 MAP Kinases are recombinant human full-length proteins with an amino-terminal GST fusion; GST (N); purchased Upstate (Charlottesville, Va.); host or cells: E. coli
Excerpt: Compounds of the invention are screened for the ability to inhibit ATF2 phosphorylation by p38 MAP Kinase in vitro. The ability of compounds to inhibit ATF2 phosphorylation in this in vitro assay is correlated with the inhibition of p38 MAP Kinase and TNFα expression in vivo, and is therefore an indicator of potential in vivo therapeutic activity (Raingeaud, J., et al, J. Biol. Chem., 270: 7420-7426, 1995, Brinkman, M. N., et al, J. Bil. Chem. 274: 30882-30886, 1999 and Fuchs, S. Y. et al, J. Biol. Chem. 275: 12560-12564, 2000).
All kinases and the substrate ATF2 are acquired from Upstate (Charlottesville, Va.). p38 MAP Kinases are recombinant human full-length proteins with an amino-terminal GST fusion, expressed in and purified from E. coli. ATF2 is a GST fusion protein containing amino acids 19-96 of human ATF2 expressed in E. coli. All proteins were aliquoted and stored at −80° C.
p38 MAP Kinase assays are performed using an assay buffer containing 25 mM HEPES, pH 7.5, 10 mM MgCl2, 2 mM DTT, 20 mM β-glycerophosphate, 0.1 mM Na3VO4, 40 μM ATP and 1.25 μM of ATF2, together with 6 ng of p38α protein, 12 ng p38β protein, 1.5 ng p38γ, or 0.4 ng JNK2α2. Compounds are serially diluted in DMSO and 2 μL of test compound at 25× final concentration is used. The vehicle control receives DMSO only. Test compounds are pre-incubated with 20 μl of enzyme in kinase buffer (25 mM HEPES, pH 7.5, 10 mM MgCl2, 2 mM DTT, 20 mM 3-glycerophosphate and 0.1 mM Na3VO4) at room temperature for 15 minutes. […] The reactions are incubated for 30 minutes at 37° C. and terminated by the addition of 18 μl of 200 mM EDTA. An ELISA method is used to measure the phosphorylation of ATF2 at Thr 69. High binding 96-well plates (Corning 3369) are coated with 50 μl of kinase reaction for 1 hour at 37° C. The coated plates are washed with 200 μl washing buffer (25 mM Tris HCl, pH 8.3, 192 mM glycine, 0.1% SDS and 0.05% Tween-20) three times. The plates are then washed three times with SuperBlock in TBS (Pierce, 37535). After blocking, plates are incubated with 50 μl of rabbit anti-phospho-ATF2 antibody (Cell Signaling, 9221 L, 1:500) for 30 minutes at 37° C. Plates are washed three times with washing buffer prior to incubation with 50 μl HRP-conjugated goat anti-rabbit antibody (Cell Signaling, 7074, 1:500) for 30 minutes at 37° C. Plates are then washed three times with washing buffer before incubation with 50 μl of Ultra TMB-ELISA (Pierce, 34028) for 8 minutes at room temperature. Finally, 50 μl of phosphoric acid (1 M) is added to stop reactions and plate absorbance is read at 450 nm on a SpectraMax 250 plate reader.

T1 sequence (Q16539 whole entry, the tested form may be a part): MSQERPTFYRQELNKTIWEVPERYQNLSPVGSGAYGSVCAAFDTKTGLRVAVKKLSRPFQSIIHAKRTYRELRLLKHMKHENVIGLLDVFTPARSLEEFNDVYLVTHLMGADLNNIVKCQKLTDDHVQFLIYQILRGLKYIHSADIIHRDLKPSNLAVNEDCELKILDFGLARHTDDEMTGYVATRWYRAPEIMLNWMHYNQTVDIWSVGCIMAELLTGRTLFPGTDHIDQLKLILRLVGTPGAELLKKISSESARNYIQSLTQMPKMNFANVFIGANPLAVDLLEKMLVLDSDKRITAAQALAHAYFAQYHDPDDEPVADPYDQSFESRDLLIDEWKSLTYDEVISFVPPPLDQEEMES

Compound | IC50 [nM]
CC(C)[C@@H](CO)Nc1nccc(-c2c(-c3ccc4c(c3)OCCO4)nc3sccn23)n1 [CCIII] | 1410
CC(C)[C@@H](CO)Nc1nccc(-c2c(-c3ccc(C(F)(F)F)cc3)nc3sccn23)n1 [CCII] | 924
Cc1csc2nc(-c3ccc(F)cc3)c(-c3ccnc(NC(CO)CO)n3)n12 [CCIV] | 10100
OCC(CO)Nc1nccc(-c2c(-c3cccc(F)c3)nc3sccn23)n1 [CCVIII] | 971
OCC(CO)Nc1nccc(-c2c(-c3ccc(F)c(F)c3)nc3sccn23)n1 [CCVI] | 609
Cc1csc2nc(-c3ccc(F)cc3)c(-c3ccnc(N[C@H](CO)C(C)C)n3)n12 [CCV] | 3190
Nc1cc(-c2c(-c3ccc(F)cc3)nc3sccn23)nc(NC2CC2)n1 [CCXXIII] | 2080
Nc1cc(-c2c(-c3ccc(F)cc3)nc3sccn23)nc(NCC2CC2)n1 [CCXXIV] | 1570
CC(C)(CO)CNc1nc(N)cc(-c2c(-c3ccc(F)cc3)nc3sccn23)n1 [CCXXIX] | 1030
Nc1cc(-c2c(-c3ccc(F)cc3)nc3sccn23)nc(NCCc2ccncc2)n1 [CCXXVIII] | 960
CCCNc1nc(N)cc(-c2c(-c3ccc(F)cc3)nc3sccn23)n1 [CCXXVII] | 1330
CCOCCCNc1nc(N)cc(-c2c(-c3ccc(F)cc3)nc3sccn23)n1 [CCXXVI] | 766
C[C@H](O)CNc1nc(N)cc(-c2c(-c3ccc(F)cc3)nc3sccn23)n1 [CCXXV] | 1050
Nc1cc(-c2c(-c3ccc(F)cc3)nc3sccn23)nc(NC[C@H](O)c2ccccc2)n1 [CCXXX] | 2570
Cc1ccc(-c2nc3sccn3c2-c2ccnc(NC(CO)CO)n2)cc1 [CCX] | 558
O[C@H]1CCN(c2nccc(-c3c(-c4ccc(F)cc4)nc4occn34)n2)C1 [CII] | 927
O[C@@H]1CCN(c2nccc(-c3c(-c4ccc(F)cc4)nc4occn34)n2)C1 [CI] | 1420
c1ccc(-c2nc3sccn3c2-c2ccnc(NCc3ccco3)n2)cc1 [CLIII] | 15.6
Fc1ccc(-c2nc3sccn3c2-c2ccnc(NCc3cccs3)n2)cc1 [CLII] | 6.14
CCOC(=O)Cc1csc2nc(-c3ccc(F)cc3)c(-c3ccnc(SC)n3)n12 [CLIV] | 1000
c1ccc(-c2nc3sccn3c2-c2ccnc(NCc3ccccn3)n2)cc1 [CLIX] | 91.1
OCCCNc1nccc(-c2c(-c3ccccc3)nc3sccn23)n1 [CLVIII] | 21.8

Compound | IC50 [nM]
c1ccc(-c2nc3sccn3c2-c2ccnc(NC3CC3)n2)cc1 [CLVII] | 5.29
CC(C)(C)OC(=O)CNc1nccc(-c2c(-c3ccc(F)cc3)nc3sccn23)n1 [CLVI] | 58.6
CCOC(=O)Cc1csc2nc(-c3ccc(F)cc3)c(-c3ccnc(NCc4ccco4)n3)n12 [CLXIII] | 1000
CCOC(=O)Cc1csc2nc(-c3ccc(F)cc3)c(-c3ccnc(NCC(C)C)n3)n12 [CLXII] | 1000
CCOC(=O)Cc1csc2nc(-c3ccc(F)cc3)c(-c3ccnc(N4CCCCC4)n3)n12 [CLXIV] | 1000
COC(=O)C(Cc1ccccc1)Nc1nccc(-c2c(-c3ccc(F)cc3)nc3sccn23)n1 (centres unmarked) [CLXIX] | 267
CCOC(=O)Cc1csc2nc(-c3ccc(F)cc3)c(-c3ccnc(NCC4CCCCC4)n3)n12 [CLXI] | 1000
c1ccc(-c2nc3sccn3c2-c2ccncn2)cc1 [CLXVIII] | 1460
CC(C)CNC(=O)Cc1csc2nc(-c3ccc(F)cc3)c(-c3ccnc(NCC(C)C)n3)n12 [CLXVII] | 1000
O=C(Cc1csc2nc(-c3ccc(F)cc3)c(-c3ccnc(NCC4CCCCC4)n3)n12)NCC1CCCCC1 [CLXVI] | 1000
O=C(Cc1csc2nc(-c3ccc(F)cc3)c(-c3ccnc(NCc4ccccc4)n3)n12)NCc1ccccc1 [CLXV] | 1000
CC(C)[C@@H](Nc1nccc(-c2c(-c3ccc(F)cc3)nc3sccn23)n1)C(=O)OC(C)(C)C [CLXXIII] | 81.4
CC(C)[C@@H](Nc1nccc(-c2c(-c3ccc(F)cc3)nc3sccn23)n1)C(=O)O [CLXXIV] | 671
CC(CO)(CO)Nc1nccc(-c2c(-c3ccc(F)cc3)nc3sccn23)n1 [CLXXIX] | 192
CC(O)CN(CC(C)O)c1nccc(-c2c(-c3ccc(F)cc3)nc3sccn23)n1 (centres unmarked) [CLXXVIII] | 1000
OCCN(CCO)c1nccc(-c2c(-c3ccc(F)cc3)nc3sccn23)n1 [CLXXVII] | 793
CN(CCO)c1nccc(-c2c(-c3ccc(F)cc3)nc3sccn23)n1 [CLXXVI] | 1000
COc1cccc(-c2nc3sccn3c2-c2ccnc(SC)n2)c1 [CLXXV] | 3390
OCCN1CCN(c2nccc(-c3c(-c4ccc(F)cc4)nc4sccn34)n2)CC1 [CLXXXIII] | 1000
CC(C)C[C@H](CO)Nc1nccc(-c2c(-c3ccc(F)cc3)nc3sccn23)n1 [CLXXXII] | 347
OC1CCN(c2nccc(-c3c(-c4ccc(F)cc4)nc4sccn34)n2)CC1 [CLXXXIV] | 594
Cc1cn2c(-c3ccnc(S(C)(=O)=O)n3)c(-c3ccc(F)cc3)nc2s1 [CLXXXVII] | 1850

Compound | IC50 [nM]
OCC(CO)Nc1nccc(-c2c(-c3ccc(F)cc3)nc3sccn23)n1 [CLXXXV] | 87.1
CC[C@H](C)C(Nc1nccc(-c2c(-c3ccc(F)cc3)nc3sccn23)n1)C(=O)OC (some centres unmarked) [CLXX] | 13.4
CCOC(=O)Cc1csc2nc(-c3ccc(F)cc3)c(-c3ccnc(NCc4ccccc4)n3)n12 [CLX] | 1000
OCCN(Cc1ccccc1)c1nccc(-c2c(-c3ccc(F)cc3)nc3sccn23)n1 [CXCII] | 213
OC[C@@H](Nc1nccc(-c2c(-c3ccc(F)cc3)nc3sccn23)n1)[C@H](O)c1ccccc1 [CXCIV] | 565
COc1cccc(-c2nc3sccn3c2-c2ccnc(NCCOCCO)n2)c1 [CXCIX] | 428
CSc1nccc(-c2c(-c3ccc(F)cc3)nc3sc(C)cn23)n1 [CXCI] | 741
COc1cccc(-c2nc3sccn3c2-c2ccnc(NCC(O)CO)n2)c1 (centres unmarked) [CXCVIII] | 649
COc1cccc(-c2nc3sccn3c2-c2ccnc(NCC(C)O)n2)c1 (centres unmarked) [CXCVII] | 61.2
COc1cccc(-c2nc3sccn3c2-c2ccnc(N[C@H](CO)[C@H](O)c3ccccc3)n2)c1 [CXCVI] | 819
COc1cccc(-c2nc3sccn3c2-c2ccnc(NC(C)CO)n2)c1 (centres unmarked) [CXCV] | 44.7
COc1ccc(-c2nc3sccn3c2-c2ccnc(SC)n2)cc1 [CXC] | 3040
Fc1ccc(-c2nc3sccn3c2-c2ccnc(NCc3ccco3)n2)cc1 [CXLIII] | 8.22
CC(C)CNc1nccc(-c2c(-c3ccc(F)cc3)nc3sccn23)n1 [CXLII] | 1.97
Fc1ccc(-c2nc3sccn3c2-c2ccnc(NCc3ccccc3)n2)cc1 [CXLI] | 4.92
Fc1ccc(-c2nc3sccn3c2-c2ccnc(N3CCOCC3)n2)cc1 [CXLVI] | 129
COc1ccc(CNc2nccc(-c3c(-c4ccc(F)cc4)nc4sccn34)n2)cc1 [CXLV] | 65.5
Nc1nccc(-c2c(-c3ccc(F)cc3)nc3occn23)n1 [CXXIX] | 97.4
COc1ccc(CNc2nccc(-c3c(-c4ccccc4)nc4sccn34)n2)cc1 [CXXXIII] | 81.4
c1ccc(-c2nc3sccn3c2-c2ccnc(N3CCOCC3)n2)cc1 [CXXXIV] | 113
CSc1nccc(-c2c(-c3ccc(F)cc3)nc3sccn23)n1 [CXXXIX, 6-(4-fluorophenyl)-5-(2-methylsulfanyl-pyrimidin-4-yl)-imidazo[2,1-b]thiazole] | 635
